Type in all cases: cell-based, human
For assay [1], the system named is ERK1/2. As to the kind of experiment: Western blot of VEGF-induced ERK1/2 phosphorylation in REC. The settings on record: REC under VEGF; compound (II-4) 500 nM, SU6656 1 μM. The protocol: (§1) REC, Mel 270, OMM 2.5 under Hepatocyte Growth Factor (HGF) or Vascular Endothelial Growth Factor (VEGF) stimulation conditions: Cell lysates were collected in RIPA lysis buffer (50 mM Tris-HCl, pH 7.4, 150 mM NaCl, 2 mM EDTA, 1% Nonidet P-40, 0.1% SDS) with protease 1× inhibitor cocktail (Roche; Indianapolis, Ind.). Lysates were kept on ice and centrifuged at 10,000×g×10 minutes and total protein was measured using the BCA assay (Pierce, Rockford, Ill.). Protein samples were mixed with 4×LDS loading buffer with 2.5% 2-mercaptoethanol (Sigma-Aldrich), heated to 70° C. for 10 minutes, and loaded on NuPAGE 4-12% Bis-Tris gel (Invitrogen, Carlsbad, Calif.). Immunoblotting was performed with nitrocellulose membranes (Bio-Rad, Hercules, Calif.) at 170-mA start and 110-mA end at 25 V for two hours in NuPAGE transfer buffer (Invitrogen) containing 20% methanol. Membranes were blocked using Odyssey blocking buffer (LI-COR; Lincoln, Nebr.) for one hour at room temperature with gentle shaking Membranes were then incubated at 4° C. with specific primary antibodies (1:1000) overnight. Cellular protein was normalized using rabbit-GAPDH or mouse-α-Tubulin [1:20,000] (Cell Signaling, Danvers, Mass.; LI-COR, respectively). […] Dual-channel infrared scan and quantitation of immunoblots were conducted using the ODYSSEY Sa infrared imaging system with Image Studio (Ver. 3.1.4) (LI-COR). […]
On the technique in general: Immunoblotting shows a protein as a band on a membrane.

Assay [2] concerns paxillin (pY118). As to the kind of experiment: Western blot of VEGF-induced paxillin Y118 phosphorylation in REC. To be noted: REC under VEGF; compound (II-4) 500 nM, SU6656 1 μM. The protocol:
REC, Mel 270, OMM 2.5 under Hepatocyte Growth Factor (HGF) or Vascular Endothelial Growth Factor (VEGF) stimulation conditions: Cell lysates were collected in RIPA lysis buffer (50 mM Tris-HCl, pH 7.4, 150 mM NaCl, 2 mM EDTA, 1% Nonidet P-40, 0.1% SDS) with protease 1× inhibitor cocktail (Roche; Indianapolis, Ind.). Lysates were kept on ice and centrifuged at 10,000×g×10 minutes and total protein was measured using the BCA assay (Pierce, Rockford, Ill.). Protein samples were mixed with 4×LDS loading buffer with 2.5% 2-mercaptoethanol (Sigma-Aldrich), heated to 70° C. for 10 minutes, and loaded on NuPAGE 4-12% Bis-Tris gel (Invitrogen, Carlsbad, Calif.). Immunoblotting was performed with nitrocellulose membranes (Bio-Rad, Hercules, Calif.) at 170-mA start and 110-mA end at 25 V for two hours in NuPAGE transfer buffer (Invitrogen) containing 20% methanol. Membranes were blocked using Odyssey blocking buffer (LI-COR; Lincoln, Nebr.) for one hour at room temperature with gentle shaking Membranes were then incubated at 4° C. with specific primary antibodies (1:1000) overnight. Cellular protein was normalized using rabbit-GAPDH or mouse-α-Tubulin [1:20,000] (Cell Signaling, Danvers, Mass.; LI-COR, respectively). Secondary antibodies (IRDye 800CW goat anti-rabbit and IRDye 680LT goat anti-mouse) [1:10,000] were incubated in the dark at room temperature for 45 minutes. Dual-channel infrared scan and quantitation of immunoblots were conducted using the ODYSSEY Sa infrared imaging system with Image Studio (Ver. 3.1.4) (LI-COR).
The α4 subunit of the cytoplasmic tail of VLA-4 interacts with the cytoskeletal adaptor paxillin, merging intracellular signaling events that drive cellular proliferation and migration (FIG. 13). Compound (II-4) inhibits phosphorylation of paxillin at Y118 (pY118) in the LD-region that interacts with the α4 subunit of VLA-4. To confirm the inhibition of pY118 of paxillin after use of compound (II-4) retinal endothelial cells (REC) were activated with Vascular Endothelial Growth Factor (VEGF) at 50 ng/mL in the presence or absence (vehicle) of compound (II-4) at a concentration of […] for 4-hrs. […] VEGF-induced pY118 was prevented by treatment with compound (II-4) [VEGF-REC treatment versus untreated, *p<0.005; VEGF-induced versus compound (II-4) treatment, **p<0.05—FIG. 13C].
To gain insight into the mechanistic basis for this phenotype, the effect of compound (II-4) on the Src/FAK/paxillin/ERK signalsome in RECs under VEGF was examined. […] Next, characterization of the potential of compound (II-4) to affect FA disassembly through inactivation of ERK was explored. […]
FIG. 13: Targeting the alpha-4 subunit of VLA-4 signaling through inhibition of paxillin. […] Phosphorylation measured by Western Blot. […]

The subject of assay [3] is retinal endothelial cells (REC). Nature of the assay: VEGF-induced REC proliferation, WST-1 metabolic assay. The settings on record: Compound (II-4) (500 nM), LY294002 (1004), SU6656 (104), U0126 (104) [sic]. The protocol:
To investigate the potential of compound (II-4) affecting the proliferative capacity of RECs treated with VEGF, proliferation was measured using the metabolic assay based on the tetrazolium salt, WST-1. […] To rule out the possibility that this observation was related to cytotoxicity, RECs were incubated with a high concentration of compound (II-4) (1 μM) for 24 hours. Cells were harvested and apoptosis measured with Annexin-V/Propidium Iodide (PI) staining and analyzed using flow cytometry.
FIG. 18: REC Proliferation and Flow cytometry analysis of apoptosis in REC. A) VEGF-induced cellular proliferation was assessed using the WST-1 metabolic assay. […] (*P<0.0001). Nuclei were stained with DRAQ5 and imaged to show trend of decreasing proliferation. B) Apoptosis was measured using Annexin V/PI staining Compound (II-4) (1 μM) appears to be non-cytotoxic to retinal endothelial cells after 24 hour incubation (n≈10,000 cells).
FIG. 21: REC Proliferation. […] (*, # P<0.001; Mean±SD, N=8/group).

Assay [4] concerns FAK (Y397, Y576/577, Y925). Nature of the assay: Western blot of VEGF-induced FAK phosphorylation in REC. To be noted: REC under VEGF; compound (II-4) 500 nM, SU6656 1 μM. The protocol: as §1
Assay [5] deals with AKT (Ser473). As to the kind of experiment: Western blot of VEGF-induced AKT phosphorylation in REC. The settings on record: REC under VEGF; compound (II-4) 500 nM, SU6656 1 μM. The method, then: as §1

In the case of `CN(C)S(=O)(=O)c1ccc2c(c1)/C(=C/c1cc3c([nH]1)CCCC3)C(=O)N2` [SU6656, reference compound], the “VEGF-dependent ERK1/2 phosphorylation” value in assay [1] is given as “Neither SU6656 nor compound (II-4) decreased”. In addition, the “VEGF-induced PaxY118 phosphorylation (FIG. 20)” value in assay [2] is “inhibited”. Besides, the “VEGF-induced REC proliferation (FIG. 21)” value in assay [3] is reported as “inhibited”. In assay [4], the “VEGF-induced FAK activation (Y397, Y925)” value was “inhibited”. For the same compound, in assay [5], the “VEGF-induced activation of AKT (P-AKT Ser473)” value was “inhibited”.

As to `N#CC(=C(/N)Sc1ccccc1N)/C(C#N)=C(\N)Sc1ccccc1N` [U0126, reference compound], the “VEGF-induced PaxY118 phosphorylation (FIG. 20)” value in assay [2] was “no change in activation of Y118”. In assay [3], the “VEGF-induced REC proliferation (FIG. 21)” value is reported as “VEGF-induced REC proliferation was inhibited”.

The values are drawn from patent publication US9834525B2, “Inhibitors of paxillin function and related compositions and methods” (UNIVERSITY OF TENNESSEE RESEARCH FOUNDATION, priority 2015, dated 2017).
